Reference: US20250041307A1, “Uses of Bicyclic Compounds for the Treatment of Diseases” (Athira Pharma, Inc., priority 2021, published 2025)

What was measured:
MDCK cells = test: Cell scattering behavior assay; assay type: cell-based; set-up: key: − indicates that the compound failed to significantly promote cell scattering behavior; + indicates maximum potency at or above 100 nM; ++ indicates maximum potency at or above 10 nM; +++ indicates maximum potency at or above 1 nM; ++++ indicates maximum potency at or above 0.1 nM; details: with 5 ng/mL HGF, 24 hours, normalized particle count compared to HGF treatment alone
Description: MDCK cells were grown under normal conditions and observed to spontaneously form tight colonies as they proliferate. MDCK cells respond to HGF treatment by moving away from each other (scattering), which is quantified to assess the amount of HGF/MET activation in the cell population. In this experiment, MDCK cells were plated in a 96-well format, treated with HGF and exemplary compounds, fluorescently stained, imaged in large fields, and scattering behavior was quantified. Quantification was determined by analyzing the number of continuous groups of cells compared to the total stained area imaged (normalized particle counts).
MDCK cells were plated at low density in black-walled imaging plates and allowed to attach overnight at 37° C. and 5% CO2 in DMEM+10% FBS. Cells were then starved to 2 hours in DMEM without FBS (“starve media”). Samples containing exemplary compounds were prepared in DMEM without FBS and included 5 ng/mL HGF protein (“treatment media”). A control curve was also prepared for each plate using HGF concentrations of 0, 5, 10, and 20 ng/mL. Starve media was replaced with treatment media and cells were incubated for 24 hours at 37° C. and 5% CO2.
After incubation, cells were fixed by replacing treatment media with cold ethanol and incubating for 20 minutes at 4° C. Cells were then rehydrated by washing with PBS and then with stain solution (fluorescent wheat germ agglutinin; WGA488 at 20 μg/mL in PBS). Cells were incubated with stain solution 30 minutes at room temperature after which stain solution was replaced with fresh PBS.
Fields of cells were imaged using an iCyte high content imager in the green wavelength. Images were converted to binary and analyzed for particle size and particle count. For the purpose of analysis, an individual cell touching no other cells or separated colonies of cells were identified as particles, and particle counts were normalized by the total signal area to account for differences in cell number. […] Compound potency was assessed by statistical increase in normalized particle count compared to HGF treatment alone.

[1] = system: hepatocyte (HepG2) cell cultures; test: Cytotoxicity assay (LDH release); assay type: cell-based; details: HepG2 cells, 48 hours, 0.1 to 100 μM
Description: This experiment was designed to obtain a preliminary assessment of cytotoxicity.
HepG2 cells were plated in 96-well cell culture plates and allowed to attach overnight at 37° C., 5% CO2 in EMEM+10% FBS. Treatments were made in complete media (EMEM+10% FBS) and included a dilution series of test compounds from 0.1 to 100 μM. Known cytotoxin cerivastatin was used as a positive assay control and prepared at a final concentration of 0.5 μM.
Growth media was replaced with treatment media (EMEM+10% FBS containing test compound dissolved in DMSO) and cells were incubated with test compounds for 48 hours. At the end of the incubation period, supernatant media from each well was transferred to a new plate and LDH assay working solution was added. LDH assay solution undergoes a colorimetric reaction in proportion to the amount of lactate dehydrogenase (an intracellular protein that was only found in the media in the presence of lysed cells) in the media. Color reaction was quantified by measurement of absorbance at a wavelength of 490 nm.
The signal range of the assay was determined by no manipulation in a negative control treatment and full lysis of all cells in a lysis control sample. Compounds that increase the level of cytotoxicity more than 20% above negative control samples were considered cytotoxic in this assay.

HGF/MET system = test: Phospho-MET ELISA; assay type: cell-based; set-up: key: − indicates that the compound failed to significantly augment MET phosphorylation; + indicates maximum potency at or above 100 nM; ++ indicates maximum potency at or above 10 nM; +++ indicates maximum potency at or above 1 nM; ++++ indicates maximum potency at or above 0.1 nM; details: HEK293 cells; with 1 ng/mL recombinant HGF; 15 minutes; augmentation of MET phosphorylation (pMET ELISA)
Description: Compounds were screened for potency towards the HGF/MET system using phospho-MET (pMET) ELISA kits (Cell Signaling). pMET levels were detected in samples having low (1 ng/mL) and high (10 ng/mL) concentrations of HGF.
HEK293 cells were prepared by passage into 6-well multi-plates and grown at 37° C. at 5% CO2 in DMEM+10% FBS until approximately 90% confluent. Cells were then starved for at least 8 hours in serum-free growth media.
Exemplary compounds were prepared in DMEM+0.1% FBS, diluted and added to treatment media with 1 ng/mL recombinant HGF protein (R&D Systems). Cells were incubated in triplicate at 37° C. and 5% CO2 for 15 minutes. Samples were then treated with 180 μL ice-cold RIPA (radioimmunoprecipitation assay) buffer and cells were lysed on ice for 15 minutes. Lysates were cleared by centrifugation at 16,000-g for 15 minutes and the supernatant was retained. Samples were normalized using a BCA assay of lysates to determine protein concentrations across the samples.
Between 50 and 100 μg total protein lysate was loaded into ELISA wells in pMET Sandwich ELISA kit (Cell Signaling Catalog #7227C), ensuring equal protein load in each well. The ELISA was processed according to manufacturer's instructions. After color developed, absorbance was read on an optical plate reader at 450 nm.
Potency measurements were determined using peak efficacy by scaling test compound dose treatments along a scale of 1-10 between 1 ng/mL and 10 ng/mL HGF doses according to the following formula: […]
where y is the normalized data-point, x is the raw data point, A is the mean HGF at 1 ng/mL, and B is the mean HGF at 10 ng/mL.

[2] = Parallel artificial membrane permeability assay (PAMPA); assay type: in vitro ADME; details: PBS, room temperature for 5 hours, 200 uM in donor well
Description: Bioavailable drugs must permeate the cellular membranes of the lining of the digestive tract. To estimate the penetrability of exemplary compounds, the in vitro parallel artificial membrane permeability assay (PAMPA) was utilized.
Test compounds must have a standard curve in the final read plate to determine partitioned concentration of each drug. A 6-point standard curve was prepared for each compound from 0 to 200 μM in phosphate-buffered saline (PBS).
Test compound solution (300 μL in PBS) was added to the donor (bottom) well of the PAMPA plate in 5 replicates and PBS vehicle (200 μL) was added to the acceptor (top) wells of appropriate wells to match the loading of the donor plate. The bottom and top of the PAMPA plates were then sandwiched together. The PAMPA plates were then incubated at room temperature for 5 hours. After incubation, 150 μL of donor solution was added to a UV compatible plate containing the corresponding standard curve. 150 μL of acceptor well solution was added adjacent to the corresponding standard curve and donor well samples for that compound. The plate was then read using a UV plate reader.
Permeability and membrane retention were then calculated based on the following formulas:
where: • A=filter area (0.3 cm^2); • VD=donor well volume (0.3 mL); • VA=acceptor well volume (0.2 mL); • t=incubation time (seconds); • CA(t)=compound concentration in acceptor well at time t; • CD(t)=compound concentration in donor well at time t; and
where: • CD(t), VD, CA(t), and VA are as defined for equation 1, and • C0=initial concentration in donor well (200 uM).

[3] = system: Rat primary cortical neuron cultures; test: Protection from neurotoxicity in vitro (Cell Titer-Glo viability); assay type: cell-based; details: for Protection of cell viability, statistical significance vs. insult control: Positive Control (1 uM)
Description: HGF/MET signaling activation is expected to protect cells, including neurons, from cell death. […] Hydrogen peroxide (H2O2) treatment produces toxic oxidative stress. Bacteria-derived lipopolysaccharide (LPS) treatment induces inflammatory cell death. Treatment with excess glutamate (Glut) produces excitotoxicity in neuron cultures. Treatment with 1-methyl-4-phenylpyridinium (MPP^+) causes cell death by inhibition of mitochondrial function.
Rat primary cortical neuron cultures were grown at 37° C., 5% CO2 in Complete Neurobasal Medium supplemented with B27/GDNF/BDNF containing 10% FBS until maturity and were then seeded in 384-well plate at 5,000 cells/well. Cultures were then treated for 15 minutes with 1 uM, 100 nM, 10 nM, 1 nM, or 0.1 nM of compound 1a. Cells were then subjected to individual conditional insults for 24 hours at the following concentrations: H2O2 at 1 uM, LPS at 1 uM, glutamate at 25 uM, MPP+ at 500 uM. All treatments contained recombinant human HGF (R&D Systems) at a concentration of 5 ng/ml.
To quantify neuroprotection, cell viability was measured with the Cell Titer-Glo Luminescent Cell Viability Assay (Promega, Cat #G7571). Data was normalized to DMSO+HGF control set at 100% cell viability. Statistical analyses for each group (n=4) were performed using one-way ANOVA with Tukey's Multiple comparison test.
Data is reported as statistical significance vs. insult control, with NS=not significant, +=p<0.05, ++=p<0.01, and +++=p<0.001.

[4] = system: scopolamine-induced cognitive impairment; test: Scopolamine-induced cognitive impairment, T-maze spontaneous alternation task; assay type: in vivo, CD-1 mice; details: mice; scopolamine only, 0.89 mg/kg
Text: Mild cognitive impairment can be assessed in rodent models via delivery of various compounds that interfere with normal neurotransmitter signaling. Scopolamine is a compound that is well-known to antagonize muscarinic acetylcholine receptors, nicotinic receptors, as well as glutamatergic receptors such as NMDA receptors. Thus, delivery of scopolamine results in cognitive impairment, which can be assessed in a variety of cognitive tasks. Positive modulation of the HGF/MET system can promote NMDA receptor activation and results in pro-cognitive effects. Two test compounds, Compound 1a and Compound 5a, were evaluated for their ability to protect against scopolamine-induced cognitive impairment.
In this study, mild cognitive impairment was modeled in otherwise healthy male CD-1 mice (4-5 weeks old at study start) by acute delivery of 0.89 mg/kg scopolamine (dissolved in saline). Test compounds were administered via oral gavage 0.5 hours prior to scopolamine exposure, and cognitive performance was assessed in the T-maze spontaneous alternation task 0.5 hours after scopolamine exposure (1 hour following test compound exposure). The experimental protocol consisted of one single session, which started with 1 “forced-choice” trial, followed by 14 “free-choice” trials. In the first “forced-choice” trial, the animal was confined 5 seconds in the start arm and was then released while either the left or right goal arm was blocked by a horizontal door. After the mouse entered the open goal arm and returned to the start position, the left or right goal door was opened, and the animal was allowed to choose freely between the left and right goal arm (“free choice trials”). The animal was considered to have entered into an arm when it placed its four paws in the arm. Normal animals will choose to explore the previously-unexplored arm, which is recorded as a spontaneous alternation. […] The session was terminated, and the animal was removed from the maze as soon as 14 free-choice trials had been performed or 10 min had elapsed, whichever event occurred first.
This percentage was defined as entry into a different goal arm of the T maze over successive trials (e.g., left-right-left-right) and was calculated using the formula: (% alternations=Number of Alternations/14*100). Both compounds attenuated the degree of scopolamine-induced cognitive impairment, as indicated by increased percent of spontaneous alternations compared to scopolamine-only controls. Statistical analysis was accomplished via 1-way ANOVA with Dunnet's multiple comparisons post-test.

| SMILES | Potency (MDCK cells) | Cytotoxicity [1] | Potency (HGF/MET system) | Papp at 5 h, 200 uM [2] | further results |
| --- | --- | --- | --- | --- | --- |
| CCC(C)CN1CC2N(C(=O)c3ccc(O)nc3)CCC(=O)N2[C@@H](C)C1=O (some centres unmarked) [Compound 4a] | + (+ indicates maximum potency at or above 100 nM) | ++++ (++++ indicates non-toxic at 100 μM) | + (+ indicates maximum potency at or above 100 nM) | > 10 ×10⁻⁶ cm/s |  |
| CCC(C)N1CC2N(Cc3ccc(O)cc3)CCC(=O)N2CC1=O (centres unmarked) [Compound 9] | − | ++++ (++++ indicates non-toxic at 100 μM) | − | > 2 ×10⁻⁶ cm/s |  |
| CCC(C)CN1CC2N(Cc3ccc(F)cc3)CCC(=O)N2C(C)C1=O (centres unmarked) [Compound 42] | +++ (+++ indicates maximum potency at or above 1 nM) | ++++ (++++ indicates non-toxic at 100 μM) | ++++ (++++ indicates maximum potency at or above 0.1 nM) | > 2 ×10⁻⁶ cm/s |  |
| CCC(C)CN1CC2N(Cc3ccc(OC(F)F)cc3)CCC(=O)N2C(CC(=O)O)C1=O (centres unmarked) [Compound 49, 2-(1-(4-(difluoromethoxy)benzyl)-8-(2-methylbutyl)-4,7-dioxooctahydro-2H-pyrazino[1,2-a]pyrimidin-6-yl)acetic acid] | ++++ (++++ indicates maximum potency at or above 0.1 nM) | ++++ (++++ indicates non-toxic at 100 μM) | ++++ (++++ indicates maximum potency at or above 0.1 nM) | > 2 ×10⁻⁶ cm/s |  |
| CC1C(=O)N(CCC2CCC2)CC2N(Cc3ccc(C(F)(F)F)c(Cl)c3)CCC(=O)N12 (centres unmarked) [Compound 51] | +++ (+++ indicates maximum potency at or above 1 nM) | +++ (+++ indicates non-toxic at 10 μM) | +++ (+++ indicates maximum potency at or above 1 nM) | < 2 ×10⁻⁶ cm/s |  |
| C[C@]12N[C@H](Cc3ccccc31)c1ccccc12 [MK-801, reference compound] |  |  |  |  | Protection of cell viability, statistical significance vs. insult control ([3]; insult Glutamate (25 uM) 24 hours): +++ (+++=p<0.001); Protection of cell viability, statistical significance vs. insult control ([3]; insult H2O2 (1 uM) 24 hours): +++ (+++=p<0.001); Protection of cell viability, statistical significance vs. insult control ([3]; insult LPS (1 uM) 24 hours): +++ (+++=p<0.001); Protection of cell viability, statistical significance vs. insult control ([3]; insult MPP+ (500 uM) 24 hours): +++ (+++=p<0.001) |
| C[n+]1ccc(-c2ccccc2)cc1 [MPP+, 1-methyl-4-phenylpyridinium, reference compound] |  |  |  |  | Insult effect (% viability vs vehicle) ([3]; 500 uM, 24 hours, with HGF 5 ng/ml): 49.85% |
| CN1[C@@H]2C[C@@H](OC(=O)[C@H](CO)c3ccccc3)C[C@H]1[C@@H]1O[C@@H]12 [SCO, scopolamine, reference compound] |  |  |  |  | Spontaneous alternations % [4]: 37% |
